For the test, the system named is P388 leukemia ip, CD2F1 mice, survival T/C. Description: NCI In Vivo Anticancer Drug Screen. Data for tumor model P388 Leukemia (intraperitoneal) in CD2F1 (CDF1) mice. Particulars: endpoint: median survival time, higher = longer survival. The procedure, abridged: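 Mice carrying the transplanted tumor received test compound or vehicle. Survival was recorded in each group, and the value is the treated-group measurement divided by that of the vehicle-treated control group.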

Where “and” joins values, the source holds several entries; their conditions need not be identical. Equal values may be shown once. Toxic doses and inconclusive results are not listed. Numbered stars: 1 amine (or outer) side, 2 acyl side, 3 side chain; on linkers, the order of the positions; unused ones are H or OH. Bridge positions count the residues as written; N and C are the ends. Square brackets hold non-standard residues; d marks the D form. Peptide text beside a SMILES is read from it. I, II: the chains in the order shown. Actinocin(9to1) = Cc1c2oc3c(C)ccc(C(=O)[*:1])c3nc-2c(C(=O)[*:2])c(N)c1=O; aThr = C[C@H](O)[C@H](N)C(=O)O; NMeV = CN[C@H](C(=O)O)C(C)C; Sar = CNCC(=O)O

For the compound `Cc1cnc(NS(=O)(=O)c2ccc(N)cc2)nc1-c1ccccc1O`, the T/C (dose: 60.0 mg/kg/injection, schedule: Q01DX005 (ip), vehicle: saline with Tween-80) is 100 % of control; the T/C (dose: 120.0 mg/kg/injection, schedule: Q01DX005 (ip), vehicle: saline with Tween-80) was 93 % of control; the T/C (dose: 240.0 mg/kg/injection, schedule: Q01DX005 (ip), vehicle: saline with Tween-80) is 86 % of control.
For the compound `Cc1c2oc3c(C)ccc(C(=O)N[C@@H]4C(=O)N[C@H](C(C)C)C(=O)N5CCC[C@H]5C(=O)N(C)CC(=O)N(C)[C@@H](C(C)C)C(=O)O[C@H]4C)c3nc-2c(C(=O)N[C@@H]2C(=O)N[C@H](C(C)C)C(=O)N3CCC[C@H]3C(=O)N(C)CC(=O)N(C)[C@@H](C(C)C)C(=O)O[C@H]2C)c(N)c1=O` (I: [aThr][dV]P[Sar][NMeV] / II: [aThr][dV]P[Sar][NMeV]; ester I:1-I:C, II:1-II:C; linker I:N-II:N via Actinocin(9to1)), the T/C (dose: 0.05 mg/kg/injection, schedule: Q01DX005 (ip), vehicle: saline + alcohol) was 236 % of control; the T/C (dose: 0.08 mg/kg/injection, schedule: Q04DX003 (ip), vehicle: saline + alcohol) was 165 % of control; the T/C (dose: 0.09 mg/kg/injection, schedule: Q01DX009 (ip), vehicle: water) is 79 % of control; the T/C (dose: 0.1 mg/kg/injection, schedule: Q01DX001 (ip), vehicle: water) was 181 % of control; the T/C (dose: 0.11 mg/kg/injection, schedule: Q04DX003 (ip), vehicle: saline + alcohol) was 151 % of control; the T/C (dose: 0.13 mg/kg/injection, schedule: Q04DX002 (ip), vehicle: saline + alcohol) was 156 % of control and 180 % of control and 198 % of control. In addition, the T/C is 223 % of control (dose: 0.13 mg/kg/injection, schedule: Q04DX003 (ip), vehicle: saline + alcohol); 169 % of control (dose: 0.15 mg/kg/injection, schedule: Q04DX003 (ip), vehicle: saline); 65 % of control (dose: 0.16 mg/kg/injection, schedule: Q01DX009 (ip), vehicle: water); 163 % of control (dose: 0.18 mg/kg/injection, schedule: Q04DX003 (ip), vehicle: saline + alcohol); 186 % of control (dose: 0.21 mg/kg/injection, schedule: Q04DX002 (ip), vehicle: saline + alcohol); 162 % of control and 215 % of control (dose: 0.22 mg/kg/injection, schedule: Q04DX002 (ip), vehicle: saline + alcohol). The T/C (dose: 0.22 mg/kg/injection, schedule: Q04DX003 (ip), vehicle: saline + alcohol) was 247 % of control; the T/C (dose: 0.3 mg/kg/injection, schedule: Q01DX001 (ip), vehicle: saline) is 153 % of control; the T/C (dose: 0.3 mg/kg/injection, schedule: Q04DX003 (ip), vehicle: saline + alcohol) was 182 % of control; the T/C (dose: 0.3 mg/kg/injection, schedule: Q04DX003 (ip), vehicle: saline) is 175 % of control; the T/C (dose: 0.36 mg/kg/injection, schedule: Q04DX002 (ip), vehicle: saline + alcohol) is 118 % of control and 176 % of control and 212 % of control; the T/C (dose: 0.36 mg/kg/injection, schedule: Q04DX003 (ip), vehicle: saline + alcohol) is 99 % of control. For the same compound, the T/C reads like this: (dose: 0.45 mg/kg/injection, schedule: Q01DX001 (ip), vehicle: saline) 164 % of control; (dose: 0.5 mg/kg/injection, schedule: Q04DX003 (ip), vehicle: saline + alcohol) 220 % of control; (dose: 0.6 mg/kg/injection, schedule: Q01DX001 (ip), vehicle: saline) 169 % of control; (dose: 0.6 mg/kg/injection, schedule: Q04DX002 (ip), vehicle: saline + alcohol) 101 % of control and 207 % of control and 254 % of control; (dose: 0.6 mg/kg/injection, schedule: Q04DX003 (ip), vehicle: saline) 86 % of control; (dose: 0.8 mg/kg/injection, schedule: Q01DX001 (ip), vehicle: water) 183 % of control. The T/C is 260 % of control and 274 % of control (dose: 1.0 mg/kg/injection, schedule: Q04DX002 (ip), vehicle: saline + alcohol); 55 % of control (dose: 1.2 mg/kg/injection, schedule: Q01DX001 (ip), vehicle: water); 150 % of control and 160 % of control and 175 % of control (dose: 3.0 micrograms/kg/injection, schedule: Q01DX009 (ip), vehicle: water); 164 % of control and 170 % of control and 188 % of control (dose: 6.0 micrograms/kg/injection, schedule: Q01DX009 (ip), vehicle: water); 207 % of control (dose: 6.25 micrograms/kg/injection, schedule: Q01DX005 (ip), vehicle: saline + alcohol); 150 % of control (dose: 6.25 micrograms/kg/injection, schedule: Q01DX009 (ip), vehicle: saline). Further, the T/C reads like this: (dose: 6.5 micrograms/kg/injection, schedule: Q01DX009 (ip), vehicle: saline + alcohol) 155 % of control; (dose: 10.8 micrograms/kg/injection, schedule: Q01DX009 (ip), vehicle: saline + alcohol) 160 % of control; (dose: 12.5 micrograms/kg/injection, schedule: Q01DX005 (ip), vehicle: saline + alcohol) 207 % of control; (dose: 18.0 micrograms/kg/injection, schedule: Q01DX009 (ip), vehicle: saline + alcohol) 163 % of control; (dose: 25.0 micrograms/kg/injection, schedule: Q01DX005 (ip), vehicle: saline + alcohol) 245 % of control; (dose: 30.0 micrograms/kg/injection, schedule: Q01DX009 (ip), vehicle: saline + alcohol) 184 % of control. Moreover, the T/C (dose: 50.0 micrograms/kg/injection, schedule: Q01DX005 (ip), vehicle: saline + alcohol) was 176 % of control and 267 % of control; the T/C (dose: 64.8 micrograms/kg/injection, schedule: Q04DX003 (ip), vehicle: saline + alcohol) was 156 % of control; the T/C (dose: 77.8 micrograms/kg/injection, schedule: Q04DX003 (ip), vehicle: saline + alcohol) is 174 % of control; the T/C (dose: 83.3 micrograms/kg/injection, schedule: Q01DX009 (ip), vehicle: saline + alcohol) was 98 % of control; the T/C (dose: 100.0 micrograms/kg/injection, schedule: Q01DX005 (ip), vehicle: saline + alcohol) was 178 % of control; the T/C (dose: 130.0 micrograms/kg/injection, schedule: Q04DX003 (ip), vehicle: saline + alcohol) is 175 % of control. In addition, the T/C is 96 % of control (dose: 139.0 micrograms/kg/injection, schedule: Q01DX009 (ip), vehicle: saline + alcohol); 190 % of control (dose: 180.0 micrograms/kg/injection, schedule: Q04DX003 (ip), vehicle: saline + alcohol); 192 % of control (dose: 216.0 micrograms/kg/injection, schedule: Q04DX003 (ip), vehicle: saline + alcohol); 162 % of control and 175 % of control (dose: 300.0 micrograms/kg/injection, schedule: Q04DX003 (ip), vehicle: saline + alcohol); 197 % of control (dose: 360.0 micrograms/kg/injection, schedule: Q04DX003 (ip), vehicle: saline + alcohol); 113 % of control and 219 % of control (dose: 500.0 micrograms/kg/injection, schedule: Q04DX003 (ip), vehicle: saline + alcohol). Further, for the setting “dose: 600.0 micrograms/kg/injection, schedule: Q04DX003 (ip), vehicle: saline + alcohol”, the T/C is 101 % of control.
Turning to `NC(=O)CNCC1Cc2ccccc21` (stereo unspecified), the T/C is 102 % of control (dose: 60.0 mg/kg/injection, schedule: Q01DX005 (ip), vehicle: saline) and 98 % of control (dose: 120.0 mg/kg/injection, schedule: Q01DX005 (ip), vehicle: saline).
As to `c1ccc(-c2nc3ccccc3nc2-c2ccc(Sc3ccc(-c4nc5ccccc5nc4-c4ccccc4)cc3)cc2)cc1`, the T/C is 96 % of control (dose: 6.25 mg/kg/injection, schedule: Q01DX009 (ip), vehicle: saline with Tween-80); 93 % of control (dose: 12.5 mg/kg/injection, schedule: Q01DX009 (ip), vehicle: saline with Tween-80); 90 % of control (dose: 25.0 mg/kg/injection, schedule: Q01DX009 (ip), vehicle: saline with Tween-80).
On to `C=C1N=NN(c2ccc(C)cc2)C1N1CCOCC1` (stereo unspecified), for which the T/C (dose: 60.0 mg/kg/injection, schedule: Q01DX005 (ip), vehicle: Klucel (hydroxypropylcellulose) (HPC)) was 93 % of control; the T/C (dose: 120.0 mg/kg/injection, schedule: Q01DX005 (ip), vehicle: Klucel (hydroxypropylcellulose) (HPC)) was 99 % of control; the T/C (dose: 240.0 mg/kg/injection, schedule: Q01DX005 (ip), vehicle: Klucel (hydroxypropylcellulose) (HPC)) was 90 % of control.
Turning to `COC(=O)C(C)NC(=O)C(C)NC(=O)C(C)NC(C)=O` (stereo unspecified), the T/C is 102 % of control (dose: 50.0 mg/kg/injection, schedule: Q01DX005 (ip), vehicle: Klucel (hydroxypropylcellulose) (HPC)); 94 % of control (dose: 100.0 mg/kg/injection, schedule: Q01DX005 (ip), vehicle: Klucel (hydroxypropylcellulose) (HPC)); 100 % of control (dose: 200.0 mg/kg/injection, schedule: Q01DX005 (ip), vehicle: Klucel (hydroxypropylcellulose) (HPC)).
In the case of `C=CN=NNc1ccccc1`, the T/C by setting is: (dose: 100.0 mg/kg/injection, schedule: Q04DX003 (ip), vehicle: saline + Tween-80 + alcohol) 105 % of control; (dose: 200.0 mg/kg/injection, schedule: Q04DX003 (ip), vehicle: saline + Tween-80 + alcohol) 106 % of control; (dose: 400.0 mg/kg/injection, schedule: Q04DX003 (ip), vehicle: saline + Tween-80 + alcohol) 110 % of control.

These data come from PubChem BioAssay AID330 (DTP/NCI, 2004).
